Source: PubChem BioAssay (NCI)
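The compound was tested at five concentrations on cells cultured in 96-well plates, with a 48-hour exposure period. GI50 is the concentration that inhibits growth by half. TGI denotes the concentration required for complete inhibition of growth.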

Legend:
Experiment in all cases: DTP human tumour cell line panel, 48 h
UO-31 renal = tested on: UO-31 renal
CCRF-CEM leukemia = tested on: CCRF-CEM leukemia
SF-268 CNS = tested on: SF-268 CNS
NCI/ADR-RES ovarian = tested on: NCI/ADR-RES ovarian
IGROV1 ovarian = tested on: IGROV1 ovarian
SNB-75 CNS = tested on: SNB-75 CNS
OVCAR-5 ovarian = tested on: OVCAR-5 ovarian
NCI-H23 lung = tested on: NCI-H23 lung
K-562 leukemia = tested on: K-562 leukemia
HCT-116 colon = tested on: HCT-116 colon
HT29 colon = tested on: HT29 colon

Row | SMILES | TGI (UO-31 renal) [µM] | TGI (CCRF-CEM leukemia) [µM] | TGI (SF-268 CNS) [µM] | TGI (NCI/ADR-RES ovarian) [µM] | TGI (IGROV1 ovarian) [µM] | TGI (SNB-75 CNS) [µM] | TGI (OVCAR-5 ovarian) [µM] | TGI (NCI-H23 lung) [µM] | TGI (K-562 leukemia) [µM] | TGI (HCT-116 colon) [µM] | TGI (HT29 colon) [µM] | GI50 (UO-31 renal) [µM] | GI50 (IGROV1 ovarian) [µM] | GI50 (SNB-75 CNS) [µM] | GI50 (OVCAR-5 ovarian) [µM] | GI50 (NCI-H23 lung) [µM]
1 | CC[C@@]1(O)C(=O)OCc2c1cc1n(c2=O)Cc2c-1nc1ccc(O)cc1c2[Si](C)(C)C(C)(C)C | 0.0357 | < 0.01 | 0.804 | 4.64 | 7.41 | 0.0162 | 2.58 | 0.0274 | > 94.5 | 0.147 | 4.39 | – | – | – | – | –
2 | CCCC[C@@H](C)/C=C1\CN2CCC[C@H]2[C@@](C)(OCc2ccccc2)[C@@H]1O | > 16.6 | > 50 | > 50 | > 50 | > 50 | > 50 | > 50 | > 50 | > 50 | > 50 | > 50 | – | – | – | – | –
3 | COC(C/C(=C/CO[Si](C(C)C)(C(C)C)C(C)C)C(=O)N(COCC[Si](C)(C)C)c1ccccc1I)OC | > 100 | > 100 | – | > 100 | 27.4 | > 100 | 87.2 | 79.5 | > 100 | 46.2 | > 100 | – | – | – | – | –
4 | O[C@@H]1C=C[C@]23CCN(Cc4cc5c(cc42)OCO5)[C@@H]3C1 | > 100 | > 100 | > 100 | > 100 | > 100 | > 100 | > 100 | > 100 | > 100 | > 100 | > 100 | – | – | – | – | –
5 | COC(=O)[C@@H]1CS(=O)(=O)C(C(C)C)N1C(C)=O (stereo partly specified) | > 100 | – | > 100 | > 100 | > 100 | > 100 | > 100 | > 100 | > 100 | > 100 | > 100 | – | – | – | – | –
6 | Cc1cn(C2CCC(CO)(CF)O2)c(=O)[nH]c1=O (stereo unspecified) | > 100 | > 100 | > 100 | > 100 | > 100 | > 100 | > 100 | > 100 | > 100 | > 100 | > 100 | – | – | – | – | –
7 | Cn1nc2ccc(Nc3cc(=O)[nH]c4ccc5nn(C)nc5c34)cc2n1 | > 100 | > 100 | > 100 | > 100 | > 100 | > 100 | > 100 | > 100 | > 100 | > 100 | > 100 | – | – | – | – | –
8 | FC(F)(F)c1cc(N(C2c3ccccc3C=Cc3ccccc32)P(Cl)Cl)cc(C(F)(F)F)c1 | 33.4 | 82.3 | 33.8 | 21.6 | 92.3 | 61.7 | 49.6 | 97.7 | 42.7 | 40.3 | > 100 | – | – | – | – | –
9 | Cc1cc(C)c2c(c1)CC1(Cc3cc(C)c(C)cc3C1=O)C2=O (stereo unspecified) | > 100 | > 100 | > 100 | > 100 | > 100 | > 100 | > 100 | – | > 100 | – | – | – | – | – | – | –
10 | O=C(O)CCC(=O)OCN1C(=O)C2C3C=CC(C2C1=O)C1C2C(=O)N(COC(=O)CCC(=O)O)C(=O)C2C31 (stereo unspecified) | > 100 | > 81.1 | > 100 | – | > 100 | > 100 | > 100 | > 100 | > 100 | > 54.3 | > 100 | – | – | – | – | –
11 | COc1cccc(N=N/C(=N/NC(=O)c2ccc(C)cc2)c2ccc(N(CCC#N)CCC#N)cc2OC)c1 | > 100 | > 100 | > 100 | > 100 | > 100 | – | 39.1 | > 100 | > 100 | > 100 | 35.5 | – | – | – | – | –
12 | O=P1(N2CCOCC2)OCCO1 | > 100 | > 100 | > 100 | > 100 | > 100 | – | > 100 | > 100 | > 100 | > 100 | > 100 | – | – | – | – | –
13 | CC1=NN(c2cccc(Cl)c2)C2(C1=Cc1ccc(O)cc1)C(Cl)C(=O)N2c1nc2ccccc2s1 (stereo unspecified) | 30.6 | > 100 | 86 | 59.7 | 65.9 | – | > 100 | 38.4 | 72.7 | 31.3 | 63.3 | – | – | – | – | –
14 | O=c1c2cc(C(F)(F)F)ccc2sc2c(NCCCNCCO)nc3ccccc3c12 | 2.74 | – | – | – | 2.62 | 2.87 | 3.04 | 3.02 | – | – | – | 1.37 | 1.23 | 1.48 | 1.63 | 1.58
15 | Cn1cnc(N)c(N=O)c1=O | – | > 10 | > 10 | > 10 | > 10 | > 10 | > 10 | > 10 | > 10 | > 10 | > 10 | – | – | – | – | –
16 | O=C(CCN1CCOCC1)/C(=C/c1ccccc1)c1ccccc1 | 28.1 | – | 19 | 17.5 | 22.8 | 21.8 | 30.4 | 14.1 | 4.24 | 12.3 | 17.6 | – | – | – | – | –
17 | CCOC(=O)c1ccc(Nc2nc3ccccc3nc2-c2cccs2)cc1 | > 100 | > 100 | > 100 | > 100 | > 100 | > 100 | > 100 | > 100 | > 100 | > 100 | – | – | – | – | – | –
18 | N#C/C(=C/C=C/c1ccco1)C(N)=O | > 10 | – | > 10 | > 10 | > 10 | > 10 | > 10 | – | – | – | > 10 | – | – | – | – | –
19 | CN(Cc1cnc2nc(N)nc(N)c2n1)c1ccc(C(=O)NC23CC4CC(CC(C4)C2)C3)cc1 | 24.1 | 52 | 22.7 | > 100 | 21.8 | 38.9 | 24.7 | 22.3 | 65.8 | > 100 | – | – | – | – | – | –
